Test results reported in patent US20180071317A1, “USE OF AGENTS THAT ALTER THE PERITUMORAL ENVIRONMENT FOR THE TREATMENT OF CANCER” (SERVICIO ANDALUZ DE SALUD, priority 2011, published 2018).

Key:
[1] = test system: fibroblasts of tumors produced by lung carcinoma non small cell human (HCC-44) cells; test: Marker expression (IHC) in fibroblasts of tumor or peritumoral area, mouse model, HCC-44; type: in vivo; settings: HCC-44 tumors in mice, 30 mg/kg/day oral, 7 days
Experimental: Subsequently, the expression in fibroblasts tumoral and peritumoral area of molecular markers associated with progression and maintenance of tumors: TGF-α, TGF-β1, TGF-β2, TGF-β3, MMP-7, MMP-11, MMP-14 were analyzed by immunohistochemistry.
Were injected with 2×10^7 cells tumors (corresponding, in each case to each of the tumor types as specified in Table 9) in 200 of PBS subcutaneously μl. […] Mice were randomized into two groups when the tumors reached a volume of 75 mm^3 One group was treated with non-peptide receptor antagonists NK1 and the other with placebo 200μ1. […] Tumors and samples of non-neoplastic stromal areas remote from the tumor were halved, formalin fixed (4%) and then were included in paraffin blocks for analysis by immunohistochemistry.
The expression on fibroblast cells obtained in the animal model was analyzed by immunohistochemistry, of the above markers: TGF-α, TGF-β1, TGF-β2, TGF-β3, MMP-7, MMP-1 1, MMP-14MP-14. […] This process was realized in mice treated with non-peptide antagonists of NK1 receptor and in untreated animals (control).

[2] = test system: fibroblast cells in co-culture with cells isolated from primary human tumors; test: Marker expression (IHC) in fibroblasts co-cultured with primary human tumor cells (colon, pancreatic, lung carcinoma, glioma, multiple myeloma); type: cell-based
Experimental: To check that the interaction of the human primary tumor cells with stromal cells, [human fibroblasts,] stimulates the secretion of substances of importance for survival and tumor progression, co-cultures were performed using stromal cells with human fibroblast-tumor cells obtained directly from primary human tumors.
On this occasion, in order to identify, using immunohistochemical techniques, the secretion of substances of importance for the survival and progression of tumors, the following antibodies were used: TGF-α (SAB4502953), TGF-β1 (SAB4502954), TGF-β2 (SAB4502956), TGF-β3 (SAB4502957), SPARC (HPA002989), MMP-3 (HPA007875), MMP-7 (SAB4501894), MMP-9 (SAB4501896), MMP-11 (SAB4501898) MMP-13 (SAB4501900) and MMP-14 (SAB4501901) using specific antibodies against them. All antibodies used were rabbit polyclonal antibodies obtained from Sigma-Aldrich and were used at a concentration of 1/1000 to achieve these immunohistochemical studies. All experiments were carried out sixfold.

[3] = test system: fibroblasts (PHF) co-cultivated with tumor cell carcinoma of urinary bladder (5637); test: Marker expression (IHC) in PHF co-cultured with 5637 tumor cells; type: cell-based, human; settings: co-culture with 5637; SP 1 μM + antagonist 1 μM; 48 h
Experimental: (§1) All cultures were maintained 48 hours, following which the same cells were included in paraffin blocks for subsequent analysis of the expression of different markers by immunohistochemistry (see Example 1). […] All experiments were carried out sixfold. Analyzed markers in fibroblast cells (stromal cells) were: TGF-α, TGF-β1, TGF-β2, TGF-β3, SPARC, MMP-3, MMP-7, MMP-9, MMP-11, MMP-13 and MMP-14.

[4] = test system: fibroblasts (PHF) co-cultured with tumor cells of human breast carcinoma (MCF-7); test: Marker expression (IHC) in PHF co-cultured with MCF-7 tumor cells; type: cell-based; settings: co-culture with MCF-7; SP 1 μM + antagonist 1 μM; 48 h;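 note: value is the percentage of fibroblasts positive for each marker, with fibroblasts cultured alone as reference, grown in fresh plasma from a healthy donor, six replicates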
Experimental: as §1

[5] = test system: fibroblasts (PHF) co-cultured with tumor cells of human pancreatic adenocarcinoma (CAPAN-1); test: Marker expression (IHC) in PHF co-cultured with CAPAN-1 tumor cells; type: cell-based; settings: co-culture with CAPAN-1; SP 1 μM + antagonist 1 μM; 48 h;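 note: cultures grown in fresh plasma from a healthy human donor, run in six replicates, value is percent of fibroblasts positive for each marker, compared with fibroblasts cultured alone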
Experimental: All cultures were maintained 48 hours, following which the same cells were included in paraffin blocks for subsequent analysis of the expression of different markers by immunohistochemistry (see Example 1). The primary antibodies used to perform immunohistochemical assays and their concentration are detailed in Example 2. All experiments were carried out sixfold. Analyzed markers in fibroblast cells (stromal cells) were: TGF-α, TGF-β1, TGF-β2, TGF-β3, SPARC, MMP-3, MMP-7, MMP-9, MMP-11, MMP-13 and MMP-14.

[6] = test system: human primary fibroblasts (PHF); test: Marker expression (immunohistochemistry) in human primary fibroblasts with SP alone or with NK1 antagonists; type: cell-based; settings: SP 1 μM + antagonist 1 μM; 48 h;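 note: primary human dermal fibroblasts, immunostained with rabbit polyclonal antibodies against each marker, value is percentage of stained cells among all cells counted in 20 fields at 400× per section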
Experimental: These PHF were obtained and purified from samples obtained from the dermis of the skin of healthy volunteers as described in De Bari et al (De Bari et al. 2001). Briefly, small pieces of skin dermis were digested in a solution of hyaluronidase (Sigma-Aldrich, USA) at a concentration of 1 mg/ml for 15 minutes at 37° C. and then treated with 6 mg/ml collagenase type IV (Invitrogen) for 2 hours at 37° C. Then, the cells were washed, resuspended in DMEM culture medium with high glucose (Dulbecco's Modified Eagle's Medium, Invitrogen) supplemented with 1% antibiotic-antimycotic (Invitrogen) and 1% pyruvate Sodium (Invitrogen), and seeded in culture dishes at a concentration of 10,000 cells per square centimeter. When the cells reached confluence, adherent cells were detached using 0.5% sterile trypsin (Invitrogen) and used between passages 3 and 9. For tests shown below, the PHF were plated in 24-well plates at a concentration of 25,000 cells per well.
After 48 hours of culture, cells were harvested and paraffin cell-blocks for immunohistochemical analysis were constructed, as previously explained in Example 1.
In immunohistochemical assays the expression of the following markers were studied: TGFα (SAB4502953), TGF1 (SAB4502954), TGFβ2 (SAB4502956), TGFβ3 (SAB4502957), SPARC (HPA002989), MMP-3 (HPA007875) MMP-7 (SAB4501894), MMP-9 (SAB4501896), MMP-11 (SAB4501898), MMP-13 (SAB4501900) and MMP-14 (SAB4501901) using specific antibodies against them. All antibodies used were rabbit polyclonal antibodies obtained from Sigma-Aldrich and were used at a concentration of 1/1000. All experiments were carried out sixfold.
On each of the six sections cell counts were performed in 20 high power fields (400×) through an Olympus microscope (model CX31) to assess the immunostaining. On each of the fields total cell number and number of cells displaying immunostaining were counted, being then the percentage of cells displaying said immunostaining.

[7] = test system: fibroblasts (PHF) co-cultured with tumor cells of human Edwing sarcoma (MHH-ES-1); test: Marker expression (IHC) in PHF co-cultured with MHH-ES-1 tumor cells; type: cell-based; settings: PHF co-cultured with MHH-ES-1 + SP + NK1 antagonist
Experimental: as §1

[8] = test system: fibroblasts (PHF) co-cultured with human fibrosarcoma tumor cells (HT-1080); test: Marker expression (IHC) in PHF co-cultured with HT-1080 tumor cells; type: cell-based; settings: co-culture with HT-1080; SP 1 μM + antagonist 1 μM; 48 h;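 note: cultures grown in fresh human plasma from a healthy donor, six replicates, value is percent of fibroblasts positive for the marker, compared with fibroblasts cultured without tumor cells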
Experimental: as §1

[9] = test system: fibroblasts (PHF) co-cultured with tumor cells of human endometrial carcinoma (AN3-CA); test: Marker expression (IHC) in PHF co-cultured with AN3-CA tumor cells; type: cell-based; settings: co-culture with AN3-CA; SP 1 μM + antagonist 1 μM; 48 h;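 note: cultured in fresh healthy-donor blood plasma with added antibiotic-antimycotic, run in six replicates, values give percent of fibroblasts positive for each marker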
Experimental: as §1

[10] = Primary tumor cells (colon carcinoma) co-cultured + fibroblast + SP (1 μM) + NK1 antagonist 1 μM
[11] = co-culture with cells isolated from glioma, SP 1 μM + antagonist 1 μM
[12] = co-culture with cells isolated from lung cancer, SP 1 μM + antagonist 1 μM
[13] = co-culture with cells isolated from multiple myeloma, SP 1 μM + antagonist 1 μM
[14] = co-culture with cells isolated from pancreatic carcinoma, SP 1 μM + antagonist 1 μM

C[C@@H](O[C@H]1OCCN(Cc2n[nH]c(=O)[nH]2)[C@H]1c1ccc(F)cc1)c1cc(C(F)(F)F)cc(C(F)(F)F)c1 [Aprepitant]
0%: fibroblasts expressing MMP-7 [1] | fibroblasts expressing MMP-11 [1] | fibroblasts expressing MMP-14 [1] | fibroblasts expressing TGF-α [1] | fibroblasts expressing TGF-β 1 [1] | fibroblasts expressing TGF-β 2 [1] | fibroblasts expressing TGF-β 3 [1] | Percentage of fibroblast cells which expressed MMP-3 [2, 10] | Percentage of fibroblast cells which expressed MMP-7 [2, 10] | Percentage of fibroblast cells which expressed MMP-9 [2, 10] | Percentage of fibroblast cells which expressed MMP-11 [2, 10] | Percentage of fibroblast cells which expressed MMP-13 [2, 10] | Percentage of fibroblast cells which expressed MMP-14 [2, 10] | Percentage of fibroblast cells which expressed SPARC [2, 10] | Percentage of fibroblast cells which expressed TGFα [2, 10] | Percentage of fibroblast cells which expressed TGFβ1 [2, 10] | Percentage of fibroblast cells which expressed TGFβ2 [2, 10] | Percentage of fibroblast cells which expressed TGFβ3 [2, 10] | Percentage of fibroblast cells which expressed MMP-3 [2, 11] | Percentage of fibroblast cells which expressed MMP-7 [2, 11] | Percentage of fibroblast cells which expressed MMP-9 [2, 11] | Percentage of fibroblast cells which expressed MMP-11 [2, 11] | Percentage of fibroblast cells which expressed MMP-13 [2, 11] | Percentage of fibroblast cells which expressed MMP-14 [2, 11] | Percentage of fibroblast cells which expressed SPARC [2, 11] | Percentage of fibroblast cells which expressed TGFα [2, 11] | Percentage of fibroblast cells which expressed TGFβ1 [2, 11] | Percentage of fibroblast cells which expressed TGFβ2 [2, 11] | Percentage of fibroblast cells which expressed TGFβ3 [2, 11] | Percentage of fibroblast cells which expressed MMP-3 [2, 12] | Percentage of fibroblast cells which expressed MMP-7 [2, 12] | Percentage of fibroblast cells which expressed MMP-9 [2, 12] | Percentage of fibroblast cells which expressed MMP-11 [2, 12] | Percentage of fibroblast cells which expressed MMP-13 [2, 12] | Percentage of fibroblast cells which expressed MMP-14 [2, 12] | Percentage of fibroblast cells which expressed SPARC [2, 12] | Percentage of fibroblast cells which expressed TGFα [2, 12] | Percentage of fibroblast cells which expressed TGFβ1 [2, 12] | Percentage of fibroblast cells which expressed TGFβ2 [2, 12] | Percentage of fibroblast cells which expressed TGFβ3 [2, 12] | Percentage of fibroblast cells which expressed MMP-3 [2, 13] | Percentage of fibroblast cells which expressed MMP-7 [2, 13] | Percentage of fibroblast cells which expressed MMP-9 [2, 13] | Percentage of fibroblast cells which expressed MMP-11 [2, 13] | Percentage of fibroblast cells which expressed MMP-13 [2, 13] | Percentage of fibroblast cells which expressed MMP-14 [2, 13] | Percentage of fibroblast cells which expressed SPARC [2, 13] | Percentage of fibroblast cells which expressed TGFα [2, 13] | Percentage of fibroblast cells which expressed TGFβ1 [2, 13] | Percentage of fibroblast cells which expressed TGFβ2 [2, 13] | Percentage of fibroblast cells which expressed TGFβ3 [2, 13] | Percentage of fibroblast cells which expressed MMP-3 [2, 14] | Percentage of fibroblast cells which expressed MMP-7 [2, 14] | Percentage of fibroblast cells which expressed MMP-9 [2, 14] | Percentage of fibroblast cells which expressed MMP-11 [2, 14] | Percentage of fibroblast cells which expressed MMP-13 [2, 14] | Percentage of fibroblast cells which expressed MMP-14 [2, 14] | Percentage of fibroblast cells which expressed SPARC [2, 14] | Percentage of fibroblast cells which expressed TGFα [2, 14] | Percentage of fibroblast cells which expressed TGFβ1 [2, 14] | Percentage of fibroblast cells which expressed TGFβ2 [2, 14] | Percentage of fibroblast cells which expressed TGFβ3 [2, 14] | PHF cells expressing MMP-3 [3] | PHF cells expressing MMP-7 [3] | PHF cells expressing MMP-9 [3] | PHF cells expressing MMP-11 [3] | PHF cells expressing MMP-13 [3] | PHF cells expressing MMP-14 [3] | PHF cells expressing SPARC [3] | PHF cells expressing TGF-α [3] | PHF cells expressing TGF-β1 [3] | PHF cells expressing TGF-β2 [3] | PHF cells expressing TGF-β3 [3] | PHF cells expressing MMP-3 [4] | PHF cells expressing MMP-7 [4] | PHF cells expressing MMP-9 [4] | PHF cells expressing MMP-11 [4] | PHF cells expressing MMP-13 [4] | PHF cells expressing MMP-14 [4] | PHF cells expressing SPARC [4] | PHF cells expressing TGF-α [4] | PHF cells expressing TGF-β1 [4] | PHF cells expressing TGF-β2 [4] | PHF cells expressing TGF-β3 [4] | PHF cells expressing MMP-3 [5] | PHF cells expressing MMP-7 [5] | PHF cells expressing MMP-9 [5] | PHF cells expressing MMP-11 [5] | PHF cells expressing MMP-13 [5] | PHF cells expressing MMP-14 [5] | PHF cells expressing SPARC [5] | PHF cells expressing TGF-α [5] | PHF cells expressing TGF-β1 [5] | PHF cells expressing TGF-β2 [5] | PHF cells expressing TGF-β3 [5] | PHF cells expressing MMP-3 [6] | PHF cells expressing MMP-7 [6] | PHF cells expressing MMP-9 [6] | PHF cells expressing MMP-11 [6] | PHF cells expressing MMP-13 [6] | PHF cells expressing MMP-14 [6] | PHF cells expressing SPARC [6] | PHF cells expressing TGFα [6] | PHF cells expressing TGFβ 1 [6] | PHF cells expressing TGFβ 2 [6] | PHF cells expressing TGFβ 3 [6] | cells expressing MMP-3 [7] | cells expressing MMP-7 [7] | cells expressing MMP-9 [7] | cells expressing MMP-11 [7] | cells expressing MMP-13 [7] | cells expressing MMP-14 [7] | cells expressing SPARC [7] | cells expressing TGF-α [7] | cells expressing TGF-β1 [7] | cells expressing TGF-β2 [7] | cells expressing TGF-β3 [7] | PHF cells expressing MMP-3 [8] | PHF cells expressing MMP-7 [8] | PHF cells expressing MMP-9 [8] | PHF cells expressing MMP-11 [8] | PHF cells expressing MMP-13 [8] | PHF cells expressing MMP-14 [8] | PHF cells expressing SPARC [8] | PHF cells expressing TGF-α [8] | PHF cells expressing TGF-β1 [8] | PHF cells expressing TGF-β2 [8] | PHF cells expressing TGF-β3 [8] | PHF cells expressing MMP-3 [9] | PHF cells expressing MMP-7 [9] | PHF cells expressing MMP-9 [9] | PHF cells expressing MMP-11 [9] | PHF cells expressing MMP-13 [9] | PHF cells expressing MMP-14 [9] | PHF cells expressing SPARC [9] | PHF cells expressing TGF-α [9] | PHF cells expressing TGF-β1 [9] | PHF cells expressing TGF-β2 [9] | PHF cells expressing TGF-β3 [9]
